In general, ED50 refers to the dose that gives a 50% effect, or the effect in half of the subjects.

From patent publication US4215135A, “Antiinflammatory 2-substituted-1H-phenanthro[9,10-d]imidazoles” (E. I. Du Pont de Nemours and Company, priority 1979, dated 1980) come the findings set out here.

Test [1] relates to adjuvant-induced arthritis in rats. Put plainly: Established adjuvant-induced arthritis in rats (A.A.). The test is classed as in vivo, Charles River Lewis male rats. Conditions: Rattus norvegicus, 24 h, read-out: A.A. ED50% (% paw volume reduction from control).
The test system of test [2] is phenylquinone-induced writhing (pain) in mice. Put plainly: Phenylquinone writhing test. The test is classed as in vivo, female white mice. Conditions: Mus musculus; oral; phenylquinone i.p.; footnote: at 2 hours; read-out: ED50 (effective analgesic dose for 50% of the mice). On the procedure: A procedure for detecting and comparing the analgesic activity of compounds in this series and standard drugs for which there is a good correlation with human efficacy is the phenylquinone writhing test.
The phenylquinone writhing test, modified from Siegmund, et al., Proc. Soc. Exp. Biol. Med. 95, 729 (1957), was employed. A test compound suspended in 1% methylcellulose was given orally to fasted (17-21 hours) female white mice, 5-20 animals per double blind test. […] […] The effective analgesic dose for 50% of the mice (ED50) was calculated by the moving average method of Thompson, W. R., Bact. Rev. 11, 115-145 (1947).
For orientation: An intraperitoneal irritant provokes the stretching counted in writhing tests.

The mark [3] stands for this setting: oral gavage, 7 daily doses, established adjuvant arthritis, uninjected left hind paw volume one day after last dose.

Like-named read-outs stand apart in the source and are kept apart here.

Consider `CCCCC1C(=O)N(c2ccccc2)N(c2ccccc2)C1=O` [Phenylbutazone, reference compound], for which the ED50 in test [1] (setting [3]) was 10 mg/kg. For the molecule `COc1ccc2c(c1)c(CC(=O)O)c(C)n2C(=O)c1ccc(Cl)cc1` [Indomethacin, reference compound], the ED50 in test [1] (po) was 0.3 mg/kg. In the case of `CC(C)Cc1ccc(C(C)C(=O)O)cc1` (stereo not drawn) [Ibuprofen, reference compound], the 50% effective dose (ED50) in test [1] (setting [3]) came out at 100 mg/kg. Consider `CC(=O)Oc1ccccc1C(=O)O` [Aspirin, reference compound], for which, in test [1] (po), the ED50 was 305 mg/kg. Consider `FC(F)C(F)(F)Sc1nc2c3ccccc3c3ccccc3c2[nH]1` [Example 2, 2-[(1,1,2,2-tetrafluoroethyl)thio]-1H-phenanthro[9,10-d]imidazole], for which the ED50 in test [1] (po) was more than 25 mg/kg. In the case of `Fc1ccc2c(c1)c1cc(F)ccc1c1[nH]c(SC(F)(F)C(F)F)nc21` [Example 7, 6,9-Difluoro-2-[(1,1,2,2-tetrafluoroethyl)thio]-1H-phenanthro-[9,10-d]imidazole], the ED50 in test [1] (po) came out at 0.45 mg/kg.

On to `O=S(=O)(c1nc2c3ccc(F)cc3c3cc(F)ccc3c2[nH]1)C(F)(F)C(F)F` [Example 8, 6,9-Difluoro-2-[(1,1,2,2-tetrafluoroethyl)sulfonyl]-1H-phenanthro[9,10-d]imidazole], for which, in test [1] (po), the ED50 came to 0.8 mg/kg.

As to `COc1ccc2c(c1)c1cc(OC)ccc1c1[nH]c(S(=O)(=O)C(F)(F)F)nc21` [Example 6, 6,9-Dimethoxy-2-(trifluoromethylsulfonyl)-1H-phenanthro-[9,10-d]imidazole], the ED50 in test [2] came out at 29 mg/kg. Take `O=S(=O)(c1nc2c3ccccc3c3ccccc3c2[nH]1)C(F)(F)C(F)F` [Example 3, 2-[(1,1,2,2-Tetrafluoroethyl)sulfonyl]-1H-phenanthro-[9,10-d]-imidazole]: in test [1] (po), the ED50 is 28 mg/kg.
